Measured values reported in publication PMC3009643 (BMC Neuroscience, 2010).
Like-named read-outs stand apart in the source and are kept apart here.

How the values were obtained:
[1] = system: neuro-2a mouse neuroblastoma cells; conditions: cited from earlier work; for fold less potent than ATX in producing toxicity: neuro-2a mouse neuroblastoma cells
[2] = target: T1, calcium-permeable DEAA mutant of rNav1.4 α-subunit (Rattus norvegicus, UniProt P15390, K1237A); assay: fluo-3 calcium influx assay in DEAA-HEK 293 cells; assay type: cell-based; conditions: for EC50: fluo-3, read-out: EC50, Ca2+ influx (95% CI)
T1 construct: host or cells: HEK 293

rNav1.4 α-subunit = target: T2, rNav1.4 α-subunit (Rattus norvegicus, UniProt P15390); assay: SBFI sodium influx assay in rNav1.4-HEK 293 cells; assay type: cell-based; conditions: for maximal response of sodium influx, area under the curve (AUC, fluorescence × time) (95%CI) / EC50: rNav1.4-HEK 293 cells; for EC50: SBFI, 37°C, read-out: EC50 (nM) (95% CI), sodium influx
T2 construct: host or cells: HEK 293

HEK 293 cells = assay: SBFI sodium influx assay in wild type HEK 293 parent cells; assay type: cell-based, human; conditions: wild type HEK 293 parent cell line
[3] = system: rNav1.2-CHL 1610, rNav1.4-HEK 293 and rNav1.5-CHL 160 cells; assay type: cell-based; conditions: 1 μM ATX for 24 h; preliminary experiments
Experimental: Supplementary file 1471-2202-11-154-S1.TIFF: Additional file 1 Lack of toxic effect of ATX in rNav1.2-CHL 1610, rNav1.4-HEK 293 and rNav1.5-CHL 160 cells. The cells were exposed to 1 μM ATX for 24 h and the medium was collected and subjected to LDH activity measurement as described by Koh and Choi (1987; Koh, JY, and Choi, DW. Quantitative determination of glutamate mediated cortical neuronal injury in cell culture by lactate dehydrogenase efflux assay. J Neurosci Methods 20:83-90). […] Click here for file

CHL 1610 cells = assay: SBFI sodium influx assay in wild type CHL 1610 parent cells; assay type: cell-based, Chinese hamster; conditions: wild type CHL 1610 parent cell line
rNav1.2 α-subunit = target: T3, rNav1.2 α-subunit (Rattus norvegicus, UniProt P04775); assay: cell-based; assay type: cell-based; conditions: for EC50: rNav1.2-CHL 1610 cells, SBFI, 37°C, read-out: EC50 (nM) (95% CI), sodium influx
T3 construct: host or cells: CHL 1610 (Chinese hamster lung)
T3 sequence (P04775 whole entry): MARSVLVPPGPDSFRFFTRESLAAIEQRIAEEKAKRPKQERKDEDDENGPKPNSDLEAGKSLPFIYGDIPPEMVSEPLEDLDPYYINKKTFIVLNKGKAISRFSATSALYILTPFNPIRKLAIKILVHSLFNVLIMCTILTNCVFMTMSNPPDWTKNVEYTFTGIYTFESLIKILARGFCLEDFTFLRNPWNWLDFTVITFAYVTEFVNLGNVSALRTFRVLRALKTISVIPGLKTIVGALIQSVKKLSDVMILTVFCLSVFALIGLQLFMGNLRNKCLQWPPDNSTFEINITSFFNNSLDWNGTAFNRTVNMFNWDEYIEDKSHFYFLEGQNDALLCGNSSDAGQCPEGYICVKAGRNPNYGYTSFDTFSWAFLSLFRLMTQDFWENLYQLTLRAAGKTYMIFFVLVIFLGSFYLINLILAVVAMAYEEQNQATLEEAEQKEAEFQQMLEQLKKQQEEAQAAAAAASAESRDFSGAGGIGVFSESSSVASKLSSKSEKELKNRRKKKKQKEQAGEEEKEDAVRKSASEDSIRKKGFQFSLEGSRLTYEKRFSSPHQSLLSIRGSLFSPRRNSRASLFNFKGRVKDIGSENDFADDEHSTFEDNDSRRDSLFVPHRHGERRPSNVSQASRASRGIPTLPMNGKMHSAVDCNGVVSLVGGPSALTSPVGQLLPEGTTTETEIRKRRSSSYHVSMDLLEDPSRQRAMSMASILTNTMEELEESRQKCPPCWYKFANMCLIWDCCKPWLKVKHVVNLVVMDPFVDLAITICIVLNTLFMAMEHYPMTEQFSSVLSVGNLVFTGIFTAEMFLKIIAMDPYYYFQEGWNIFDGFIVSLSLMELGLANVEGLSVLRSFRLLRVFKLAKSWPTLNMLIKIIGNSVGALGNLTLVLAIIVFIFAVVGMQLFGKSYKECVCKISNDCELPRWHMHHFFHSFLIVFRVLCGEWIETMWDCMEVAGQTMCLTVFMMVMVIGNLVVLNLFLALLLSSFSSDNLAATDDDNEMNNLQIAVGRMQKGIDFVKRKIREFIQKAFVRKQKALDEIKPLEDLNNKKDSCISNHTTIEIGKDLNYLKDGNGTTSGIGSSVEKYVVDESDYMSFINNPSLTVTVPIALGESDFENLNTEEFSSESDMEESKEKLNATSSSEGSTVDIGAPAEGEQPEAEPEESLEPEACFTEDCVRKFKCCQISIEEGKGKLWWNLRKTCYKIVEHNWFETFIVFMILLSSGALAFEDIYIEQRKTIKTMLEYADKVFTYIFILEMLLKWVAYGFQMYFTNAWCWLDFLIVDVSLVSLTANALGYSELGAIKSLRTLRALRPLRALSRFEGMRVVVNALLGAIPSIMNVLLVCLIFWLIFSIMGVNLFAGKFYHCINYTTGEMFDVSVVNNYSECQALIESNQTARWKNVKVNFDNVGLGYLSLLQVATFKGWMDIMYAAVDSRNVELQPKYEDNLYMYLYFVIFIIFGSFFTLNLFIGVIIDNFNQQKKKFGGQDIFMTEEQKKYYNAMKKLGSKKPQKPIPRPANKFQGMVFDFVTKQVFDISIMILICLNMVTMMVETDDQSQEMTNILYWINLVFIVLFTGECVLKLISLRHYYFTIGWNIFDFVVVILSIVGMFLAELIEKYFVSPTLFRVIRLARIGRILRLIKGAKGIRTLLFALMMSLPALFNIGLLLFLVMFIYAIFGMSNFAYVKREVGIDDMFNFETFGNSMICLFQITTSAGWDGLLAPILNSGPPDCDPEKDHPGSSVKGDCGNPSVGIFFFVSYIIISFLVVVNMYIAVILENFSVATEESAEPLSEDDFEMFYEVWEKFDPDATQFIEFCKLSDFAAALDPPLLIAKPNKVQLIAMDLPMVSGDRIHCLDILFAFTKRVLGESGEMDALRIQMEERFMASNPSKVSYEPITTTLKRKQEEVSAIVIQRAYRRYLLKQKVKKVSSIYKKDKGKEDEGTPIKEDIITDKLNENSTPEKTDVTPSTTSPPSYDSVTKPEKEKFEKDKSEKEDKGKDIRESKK

rNav1.5 α-subunit = target: T4, rNav1.5 α-subunit (Rattus norvegicus, UniProt P15389); assay: SBFI sodium influx assay in rNav1.5-CHL 1610 cells; assay type: cell-based; conditions: for EC50: rNav1.5-CHL 1610 cells, SBFI, 37°C, read-out: EC50 (nM) (95% CI), sodium influx
T4 construct: host or cells: CHL 1610 (Chinese hamster lung)
T4 sequence (P15389 whole entry): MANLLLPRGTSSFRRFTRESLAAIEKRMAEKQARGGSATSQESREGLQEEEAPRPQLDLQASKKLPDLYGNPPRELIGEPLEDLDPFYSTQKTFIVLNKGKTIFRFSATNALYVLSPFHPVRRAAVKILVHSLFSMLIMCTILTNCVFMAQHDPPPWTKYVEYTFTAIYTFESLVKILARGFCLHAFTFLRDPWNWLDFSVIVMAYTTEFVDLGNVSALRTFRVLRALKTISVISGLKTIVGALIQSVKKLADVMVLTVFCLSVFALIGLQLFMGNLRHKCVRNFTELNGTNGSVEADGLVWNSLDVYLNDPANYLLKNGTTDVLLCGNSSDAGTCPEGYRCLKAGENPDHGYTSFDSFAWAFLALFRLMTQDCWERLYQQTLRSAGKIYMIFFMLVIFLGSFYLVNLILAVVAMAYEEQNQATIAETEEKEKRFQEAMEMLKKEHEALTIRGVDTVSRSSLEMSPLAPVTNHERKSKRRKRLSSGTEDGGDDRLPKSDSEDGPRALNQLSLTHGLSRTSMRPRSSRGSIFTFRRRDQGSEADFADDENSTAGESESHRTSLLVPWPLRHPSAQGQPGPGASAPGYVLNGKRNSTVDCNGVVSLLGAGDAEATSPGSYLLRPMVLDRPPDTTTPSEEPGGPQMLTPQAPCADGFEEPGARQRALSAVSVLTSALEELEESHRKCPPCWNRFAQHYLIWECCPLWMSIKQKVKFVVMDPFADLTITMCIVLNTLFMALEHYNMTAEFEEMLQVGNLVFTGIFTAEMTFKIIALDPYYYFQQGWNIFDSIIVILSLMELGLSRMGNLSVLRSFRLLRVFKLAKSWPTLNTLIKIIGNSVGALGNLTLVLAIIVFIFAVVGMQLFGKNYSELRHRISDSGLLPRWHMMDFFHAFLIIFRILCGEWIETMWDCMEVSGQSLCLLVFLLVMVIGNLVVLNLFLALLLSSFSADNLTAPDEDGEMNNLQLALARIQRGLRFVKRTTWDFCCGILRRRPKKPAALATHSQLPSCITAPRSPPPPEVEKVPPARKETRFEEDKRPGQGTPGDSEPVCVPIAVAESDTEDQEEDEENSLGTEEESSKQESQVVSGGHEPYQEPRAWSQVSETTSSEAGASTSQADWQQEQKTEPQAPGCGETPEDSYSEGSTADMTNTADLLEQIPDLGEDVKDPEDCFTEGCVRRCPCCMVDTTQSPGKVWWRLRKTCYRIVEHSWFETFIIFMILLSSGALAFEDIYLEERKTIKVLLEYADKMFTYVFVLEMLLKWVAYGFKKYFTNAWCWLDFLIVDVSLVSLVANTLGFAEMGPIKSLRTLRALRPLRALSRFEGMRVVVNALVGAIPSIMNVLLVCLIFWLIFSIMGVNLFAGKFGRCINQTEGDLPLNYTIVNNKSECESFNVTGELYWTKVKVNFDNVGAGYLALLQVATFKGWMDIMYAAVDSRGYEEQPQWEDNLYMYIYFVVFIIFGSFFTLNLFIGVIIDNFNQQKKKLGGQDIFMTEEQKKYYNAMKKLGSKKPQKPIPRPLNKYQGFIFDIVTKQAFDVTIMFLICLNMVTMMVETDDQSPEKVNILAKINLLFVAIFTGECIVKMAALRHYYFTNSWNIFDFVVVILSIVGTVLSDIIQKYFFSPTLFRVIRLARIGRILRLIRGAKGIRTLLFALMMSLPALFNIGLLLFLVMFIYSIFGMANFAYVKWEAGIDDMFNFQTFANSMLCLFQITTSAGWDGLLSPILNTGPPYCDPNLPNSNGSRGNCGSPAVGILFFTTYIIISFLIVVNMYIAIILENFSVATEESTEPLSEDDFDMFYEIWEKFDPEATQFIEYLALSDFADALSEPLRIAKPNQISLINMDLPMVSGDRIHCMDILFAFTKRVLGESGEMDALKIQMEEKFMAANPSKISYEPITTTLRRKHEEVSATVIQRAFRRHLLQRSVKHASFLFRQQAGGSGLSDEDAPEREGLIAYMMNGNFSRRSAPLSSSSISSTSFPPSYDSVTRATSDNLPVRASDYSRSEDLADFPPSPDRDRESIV

[4] = system: sodium channel neurotoxin site 2; conditions: cited from earlier work
neocortical neurons = conditions: cited from earlier work

8-demethyl-antillatoxin [reference compound]
fold less potent than ATX in producing toxicity [1]: 244 fold

C=C1CC(=O)N[C@@H](C)C(=O)N(C)[C@@H](C(C)C)C(=O)NCC(=O)O[C@@H](/C(C)=C/C(C)=C/C(C)(C)C)[C@@H]1C [ATX, antillatoxin]
EC50 ([2]; DEAA-HEK 293 cells): 165 nM
maximal response of sodium influx, area under the curve (AUC, fluorescence × time) (95%CI) (rNav1.4 α-subunit; ATX alone): 439.4
maximal response of sodium influx, area under the curve (AUC, fluorescence × time) (95%CI) (rNav1.4 α-subunit; ATX in the presence of PbTx-2 (3 μM)): 537.9
EC50 (rNav1.4 α-subunit): 165 nM
Efficacy (relative), sodium influx (rNav1.4 α-subunit; rNav1.4, relative to ATX = 1): 1
fold more potent than in neuronal rNav1.2, sodium influx (rNav1.4 α-subunit; skeletal muscle rNav1.4 versus rNav1.2): 2 fold
sodium influx (in words) (HEK 293 cells): minimal sodium influx
toxicity (LDH activity, in words) [3]: not toxic
sodium influx (in words) (CHL 1610 cells): minimal sodium influx
EC50 (rNav1.2 α-subunit): 376 nM
Efficacy (relative), sodium influx (rNav1.2 α-subunit; rNav1.2, relative to ATX = 1): 1
fold more potent than in neuronal rNav1.2, sodium influx (rNav1.5 α-subunit; cardiac rNav1.5 versus rNav1.2): 2 fold
EC50 (rNav1.5 α-subunit): 205 nM
Efficacy (relative), sodium influx (rNav1.5 α-subunit; rNav1.5, relative to ATX = 1): 1

C=C1CC(=O)N[C@@H](C)C(=O)N(C)[C@@H](C(C)C)C(=O)NCC(=O)O[C@@H](/C(C)=C/CCC(C)(C)C)[C@@H]1C [DH-ATX, 8-demethyl-8,9-dihydro-antillatoxin]
fold less potent than ATX in producing toxicity [1]: 27 fold
EC50 ([1]; neuro-2a neuroblastoma cells, read-out: EC50, toxicity): 1200 nM
EC50 ([2]; DEAA-HEK 293 cells): 680 nM
relative efficacy, Ca2+ influx ([2]; DEAA-HEK 293 cells, relative to ATX): 0.24
EC50 (rNav1.4 α-subunit): 644 nM
Efficacy (relative), sodium influx (rNav1.4 α-subunit; rNav1.4, relative to ATX = 1): 0.33
EC50 (rNav1.2 α-subunit): 1130 nM
Efficacy (relative), sodium influx (rNav1.2 α-subunit; rNav1.2, relative to ATX = 1): 0.32
fold less potent than ATX, stimulation of sodium influx (rNav1.2 α-subunit; stated for all three cell lines (rNav1.2-CHL 1610, rNav1.4-HEK 293, rNav1.5-CHL 1610)): 2.5 - 4 fold
EC50 (rNav1.5 α-subunit): 595 nM
Efficacy (relative), sodium influx (rNav1.5 α-subunit; rNav1.5, relative to ATX = 1): 0.25

CCC[C@@H](C)[C@H](O)[C@H](C)[C@H]1OC(=O)[C@H]([C@@H](C)O)NC(=O)[C@H](C(C)C)OC(=O)[C@H](C)[C@H](O)[C@H]([C@@H](C)CC)NC(=O)[C@@]2(C)CSC(=N2)[C@@]2(C)CSC(=N2)c2csc(n2)C[C@H](OC)[C@@H]1C [Hoiamide A, hoiamide A]
fold more potent than veratridine, inhibition of [3H]BTX binding [4]: 360 fold
IC50 ([4]; read-out: IC50, inhibition of [3H]BTX binding): 92.8 nM

NC1=N[C@H](O)[C@H]2[C@H]3O[C@]4(O)O[C@@H]([C@@H](O)[C@@]2(N1)[C@@H]4O)[C@]3(O)CO [TTX, tetrodotoxin, reference compound]
IC50 (rNav1.4 α-subunit; read-out: IC50, inhibition of ATX-induced sodium influx (95% CI)): 25.2 nM

COc1ccc(C(=O)O[C@H]2CC[C@@]3(C)[C@@H]4CC[C@H]5[C@]6(O)C[C@H](O)[C@@]7(O)[C@@H](CN8C[C@@H](C)CC[C@H]8[C@@]7(C)O)[C@]6(O)C[C@@]53O[C@]24O)cc1OC [Veratridine, veratridine, reference compound]
stimulation of Ca2+ influx (in words) ([2]; DEAA-HEK 293 cells): without effect
Efficacy (relative), sodium influx (rNav1.4 α-subunit; rNav1.4, relative to ATX = 1): 0
efficacy, sodium influx (neocortical neurons; neocortical neurons): 0.67
Efficacy (relative), sodium influx (rNav1.2 α-subunit; rNav1.2, relative to ATX = 1): 0
Efficacy (relative), sodium influx (rNav1.5 α-subunit; rNav1.5, relative to ATX = 1): 0

brevetoxin-2 [PbTx-2, reference compound]
stimulation of Ca2+ influx (in words) [2]: without effect
Efficacy (relative), sodium influx (rNav1.4 α-subunit): 0
efficacy, sodium influx (neocortical neurons): 0.81
Efficacy (relative), sodium influx (rNav1.2 α-subunit): 0
Efficacy (relative), sodium influx (rNav1.5 α-subunit): 0
